SMILES strings stand for the structures.

The test system of series [1] is chick embryo microvessel formation. In words: Quantitative chick embryo in vivo assay of antiangiogenic activity. The settings on record: Gallus gallus; 26 nM drug concentration/pellet; 24 hours incubation; read-out: Inhibition of microvessel area. How it is done:
Evaluation of Antiangiogenic Activity in a Quantitative Chick Embryo In Vivo Assay
The inhibition of angiogenesis (new blood vessel formation) was measured as described in WO2006/061212.

Series [2] relates to HT-29 human colon adenocarcinoma cells. In words: MTT viability assay in HT-29 cells. The settings on record: HT-29, 72 h, read-out: Viability of HT-29 cells as determined by MTT assay.
Protocol: Evaluation of Effect on Viability (MTT Assay)
The antiproliferative activity of test compounds was determined by the 3-(4,5-dimethylthiazol-2-yl)-2,5-diphenyltetrazolium bromide (MTT) assay as described previously (Mosmann, T. et al. (1983) J. Immunol. Methods 65, 55-63). Cells in the exponential growth phase were transferred to 96-well flat-bottom plates. 10,000 viable cells contained in 200 μl cell suspension were plated into each well and incubated over night. Cells were then exposed to various concentrations of test compounds (100 μl/well) for 3 days at 37° C. with 5% CO2. Subsequently, 10 μl/well MTT stock solution (5 mg/ml; Biomol, Germany) was added and the cells were incubated at 37° C. with 5% CO2 for 4 hours. 100 μl solubilization solution (10% SDS in 0.01 M HCl) was added and the cells were incubated at 37° C. with 5% CO2 over night. Plates were read on an ELISA-Reader ELX 800 (BIO-TEK Software KC 4) at 562 nm absorbance. Each experiment was done in triplicate.
HCT-116, HT-29 and SW480 cells were cultured in RPMI1640 supplemented with 10% FCS. […] All cells were maintained at 37° C. and 5% CO2.
Series [3] concerns HT-29. In words: Nicoletti apoptosis assay in HT-29 cells. In kind it is cell-based, human. The settings on record: for Activity in combination with irinotecan relative to compound A, in words: HT-29 cells; for Sub-G1 Fraction / Induction of apoptosis under irinotecan single application (Sub-G1 Fraction): HT-29. How it is done:
(§1) Nicoletti Apoptosis Assay by Cell Cycle Analysis
(§2) Cancer cells were transferred to 12-well flat-bottomed plates. […] Subsequently, cells were incubated in 1 ml medium containing various concentrations of test compounds at 37° C. with 5% CO2. After incubation the cells were washed with PBS, trypsinized, pelleted and mixed with PI buffer (containing 0.1% sodium citrate, 0.1% triton X-100, […] propidium iodide (PI)) and incubated for 1 hour at 4° C. Cell cycle sub-G1 fraction analysis was performed as described previously (Nicoletti, I. et al. (1991) J. Immunol. Methods 139, 271-279) using a flow cytometer (BD FACS Calibur™, BD Biosciences, Heidelberg, Germany). Each experiment was done in triplicate.

For series [4], the system named is HUVEC. Kind of series: Nicoletti apoptosis assay (sub-G1 fraction) in HUVEC. In kind it is cell-based, human. The settings on record: 4 days, untreated 15.4 ± 1.5%. How it is done:
as §1, §2
The same analysis was performed with HUVEC cells. 1.5×10^4 cells were plated into each well and treated with test compounds for 4 days.
Human Umbilical Vein Endothelial Cells (HUVEC) known for mitogenic specifity for VEGF were obtained from the Department of Pathology, University Hospital of Mainz, Germany. The cells were cultured in M199 supplemented with 20% FCS, 1% Pen/Strep, 0.34% GlutaMAX-I, 25 μg/ml Endothelial Cell Growth Supplement (BD Biosciences), 25 μg/ml Heparin sodium (179 USP units/mg; Sigma, Germany) and were maintained at 37° C. and 5% CO2.

The test system of series [5] is SW480. In words: Nicoletti apoptosis assay in SW480 cells. In kind it is cell-based, human. As to the method: as §1, §2
Series [6] has as its system Caco-2. Kind of series: Nicoletti apoptosis assay in Caco-2 cells. The series is classed as cell-based, human. How it is done:
as §1, §2

Series [7] relates to HCT-116. Kind of series: Nicoletti apoptosis assay in HCT-116 cells. The series is classed as cell-based, human. The settings on record: Table 6, 1.18 μM irinotecan alone. As to the method: as §1, §2
Series [8] deals with MKN-45. In words: Nicoletti apoptosis assay in MKN-45 cells. The series is classed as cell-based, human. As to the method: as §1, §2
Series [9] concerns the target GSK-3β (Homo sapiens (Human), UniProt P49841). Kind of series: GSK-3β kinase inhibition assay (Millipore IC50Profiler). The series is classed as biochemical. From the text: (§3) GSK-3β, VEGFR-2, FLT-3 Kinase Inhibition Assays
(§4) Detailed protocols can be found at: www.millipore.com/drugdiscovery/dd3/assayprotocols.

The target in series [10] is FLT-3 (Homo sapiens (Human), UniProt P36888). In words: FLT-3 kinase inhibition assay (Millipore IC50Profiler). In kind it is biochemical. How it is done:
as §3
The effect of test compounds on the activity of the protein kinases GSK-3β, VEGFR-2 and FLT-3 was evaluated based on half maximal inhibitory concentration (IC50) values determined by Millipore UK Ltd; Gemini Crescent; Dundee Technology Park; Dundee DD2 1SW; UK (IC50Profiler). Detailed protocols can be found at: www.millipore.com/drugdiscovery/dd3/assayprotocols.

Series [11] has as its target VEGFR-2 (Homo sapiens (Human), UniProt P35968). Kind of series: VEGFR-2 kinase inhibition assay (Millipore IC50Profiler). In kind it is biochemical.
Source text: as §3, §4

Where [12] appears, read: Table 8, 7.9 μM test compound alone, drug-free control 3.4 ± 0.9%.
Where [13] appears, read: Table 8, 7.9 μM test compound plus 1.18 μM irinotecan.
The mark [14] stands for this setting: Table 6, 1.18 μM irinotecan alone.

Sequence of VEGFR-2 (P35968 20-1356): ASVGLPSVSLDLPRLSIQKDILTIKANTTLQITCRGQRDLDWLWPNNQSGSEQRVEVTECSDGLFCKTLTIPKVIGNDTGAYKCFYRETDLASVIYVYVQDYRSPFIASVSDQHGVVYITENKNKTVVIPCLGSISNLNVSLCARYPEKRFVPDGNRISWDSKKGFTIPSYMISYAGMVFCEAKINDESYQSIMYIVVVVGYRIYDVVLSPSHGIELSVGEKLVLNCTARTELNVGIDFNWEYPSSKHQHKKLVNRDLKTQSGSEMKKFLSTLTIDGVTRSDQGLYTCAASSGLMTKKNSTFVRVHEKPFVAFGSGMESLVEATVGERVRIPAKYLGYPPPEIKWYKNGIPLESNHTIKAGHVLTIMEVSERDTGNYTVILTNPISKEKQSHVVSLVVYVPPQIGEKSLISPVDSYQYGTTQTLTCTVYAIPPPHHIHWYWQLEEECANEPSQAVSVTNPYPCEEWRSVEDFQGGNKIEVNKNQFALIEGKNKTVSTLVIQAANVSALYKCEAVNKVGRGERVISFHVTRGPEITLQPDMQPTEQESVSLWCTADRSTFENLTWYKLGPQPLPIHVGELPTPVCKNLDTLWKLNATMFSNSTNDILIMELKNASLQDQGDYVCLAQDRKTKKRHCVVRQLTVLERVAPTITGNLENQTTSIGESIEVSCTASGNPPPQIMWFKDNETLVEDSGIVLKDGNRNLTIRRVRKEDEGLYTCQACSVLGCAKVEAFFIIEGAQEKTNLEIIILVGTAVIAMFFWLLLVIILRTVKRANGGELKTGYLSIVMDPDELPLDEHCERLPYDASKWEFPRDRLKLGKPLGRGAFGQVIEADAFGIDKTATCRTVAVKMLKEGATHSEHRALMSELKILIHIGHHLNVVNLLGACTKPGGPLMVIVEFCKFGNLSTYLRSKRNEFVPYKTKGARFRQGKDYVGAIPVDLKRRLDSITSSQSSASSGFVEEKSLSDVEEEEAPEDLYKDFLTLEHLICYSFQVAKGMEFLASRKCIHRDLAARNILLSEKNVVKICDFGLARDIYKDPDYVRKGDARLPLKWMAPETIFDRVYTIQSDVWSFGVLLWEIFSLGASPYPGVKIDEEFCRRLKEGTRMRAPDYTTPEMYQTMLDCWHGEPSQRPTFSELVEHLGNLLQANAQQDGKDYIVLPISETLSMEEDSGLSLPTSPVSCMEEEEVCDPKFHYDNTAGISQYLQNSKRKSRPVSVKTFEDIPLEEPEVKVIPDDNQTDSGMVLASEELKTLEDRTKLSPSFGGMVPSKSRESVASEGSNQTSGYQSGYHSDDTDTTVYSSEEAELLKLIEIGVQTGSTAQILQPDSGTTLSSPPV
Sequence of FLT-3 (P36888 27-993): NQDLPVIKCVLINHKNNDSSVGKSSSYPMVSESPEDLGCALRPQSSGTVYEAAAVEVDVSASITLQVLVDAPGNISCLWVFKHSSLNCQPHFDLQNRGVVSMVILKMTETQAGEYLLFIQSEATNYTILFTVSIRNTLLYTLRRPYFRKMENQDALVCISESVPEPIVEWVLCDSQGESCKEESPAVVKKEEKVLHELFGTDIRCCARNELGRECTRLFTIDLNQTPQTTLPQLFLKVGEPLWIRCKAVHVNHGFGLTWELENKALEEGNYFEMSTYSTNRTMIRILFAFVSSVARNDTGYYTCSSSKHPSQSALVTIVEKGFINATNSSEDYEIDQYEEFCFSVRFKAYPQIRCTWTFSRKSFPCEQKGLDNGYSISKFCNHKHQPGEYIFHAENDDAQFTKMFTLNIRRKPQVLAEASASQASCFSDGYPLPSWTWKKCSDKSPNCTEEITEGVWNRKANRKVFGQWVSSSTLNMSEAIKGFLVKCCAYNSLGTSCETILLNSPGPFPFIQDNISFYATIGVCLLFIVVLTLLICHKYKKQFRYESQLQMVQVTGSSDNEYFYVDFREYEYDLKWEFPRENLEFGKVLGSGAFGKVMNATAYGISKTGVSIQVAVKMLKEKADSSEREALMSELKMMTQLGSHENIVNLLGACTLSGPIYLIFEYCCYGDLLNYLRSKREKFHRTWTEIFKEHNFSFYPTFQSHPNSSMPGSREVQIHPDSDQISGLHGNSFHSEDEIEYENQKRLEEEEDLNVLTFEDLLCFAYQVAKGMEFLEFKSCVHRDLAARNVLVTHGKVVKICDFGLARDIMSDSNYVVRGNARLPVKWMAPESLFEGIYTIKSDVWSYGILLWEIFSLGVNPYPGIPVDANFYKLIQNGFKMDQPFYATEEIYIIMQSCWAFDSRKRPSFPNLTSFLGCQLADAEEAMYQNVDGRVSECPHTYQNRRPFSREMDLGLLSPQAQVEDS
Sequence of GSK-3β (P49841 whole entry): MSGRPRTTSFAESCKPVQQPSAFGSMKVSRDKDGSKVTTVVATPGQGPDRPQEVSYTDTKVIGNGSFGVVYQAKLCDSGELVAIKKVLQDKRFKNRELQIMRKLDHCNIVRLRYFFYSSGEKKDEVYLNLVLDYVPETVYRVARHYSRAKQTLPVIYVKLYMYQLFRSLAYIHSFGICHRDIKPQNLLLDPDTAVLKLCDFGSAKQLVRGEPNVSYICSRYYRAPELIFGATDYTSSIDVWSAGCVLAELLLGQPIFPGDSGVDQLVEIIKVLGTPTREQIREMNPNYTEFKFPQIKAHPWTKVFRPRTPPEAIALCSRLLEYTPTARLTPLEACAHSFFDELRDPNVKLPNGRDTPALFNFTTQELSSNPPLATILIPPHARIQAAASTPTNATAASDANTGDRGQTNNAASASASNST

Compound `COc1cc(C2=C(c3c[nH]c4ccc(Br)cc34)C(=O)NC2=O)cc(OC)c1OC` [P, 3-(5-Bromo-1H-indol-3-yl)-4-(3,4,5-trimethoxyphenyl)-maleinimide] gave a melting point of 259 to 262 °C. Moreover, in series [1], the inhibition at 0.026 µM was 35%. In series [2], the viability at 2.6 µM was 37.83 ± 0.19%, the viability at 7.9 µM amounted to 20.6 ± 0.35%, the viability at 26 µM is 7.07 ± 1.37% and the viability at 52 µM turned out to be 8.68 ± 0.37%. For the same compound, in series [3], the “Activity in combination with irinotecan relative to compound A, in words” value was “at least comparable with compound A”. The “Sub-G1 Fraction” value in series [3] (setting [12]) was found to be 1.81 ± 0.36%. In addition, in series [3] (setting [13]), the “Sub-G1 Fraction” value is on record as 55.00 ± 0.33%. Besides, in series [4] (0.79 μM), the “Sub-G1 Fraction” value stood at 24.0 ± 1.9%. Further, the “Sub-G1 Fraction” value in series [4] (2.6 μM) is on record as 31.6 ± 2.0%. The “Sub-G1 Fraction” value in series [4] (7.9 μM) is recorded as 54.4 ± 3.2%.
Regarding `CCc1c2c(nc3ccc(OC(=O)N4CCC(N5CCCCC5)CC4)cc13)-c1cc3c(c(=O)n1C2)COC(=O)[C@]3(O)CC` [irinotecan, reference compound], the “Sub-G1 Fraction” value in series [5] (setting [14]) is reported as 9.61 ± 0.91%; in series [3] (setting [14]) it was 17.40 ± 0.98%; in series [6] (setting [14]), 18.80 ± 0.8%; in series [7] it was 9.86 ± 2.4%; in series [8] (setting [14]), 28.97 ± 1.15%. Also, the “Induction of apoptosis under irinotecan single application (Sub-G1 Fraction)” value in series [3] (Table 8) is “Induction of apoptosis under irinotecan single application 18.3 ± 1.1%”; in [3] (Table 9), “Induction of apoptosis under irinotecan single application 17.4 ± 0.6%”.
Take `CC[C@@]1(O)C(=O)OCc2c1cc1n(c2=O)Cc2cc3c(CN(C)C)c(O)ccc3nc2-1` [topotecan, reference compound]: the “Sub-G1 Fraction” value in series [5] (Table 7, 20 nM topotecan alone) was found to be 13.34 ± 0.3%; in series [3] (Table 7, 20 nM topotecan alone), 7.9 ± 0.8%; in [6] (Table 7, 20 nM topotecan alone), 31.5 ± 0.08%; in series [8] (Table 7, 20 nM topotecan alone), 26.15 ± 0.49%.
`COc1cc(C2=C(c3c[nH]c4ncccc34)C(=O)NC2=O)cc(OC)c1OC` [B, 3-(7-Azaindol-3-yl)-4-(3,4,5-trimethoxyphenyl)-maleinimid]: the IC50 in series [9] was over 10000 nM; in series [10] it was 132 nM; in [11], 37 nM. The “FLT-3 inhibition, in words” value in [10] (Table 2) is given as “most significantly inhibited”. In series [1], the inhibition at 0.026 µM came to 61%. Moreover, the viability at 2.6 µM in series [2] worked out at 65 ± 2.16%. Besides, in [2], the viability at 7.9 µM was found to be 45.5 ± 3.71%. Moreover, the viability at 26 µM in series [2] was determined as 38.5 ± 0.99%. In addition, in [2], the viability at 52 µM worked out at 38.1 ± 5.43%. The “Sub-G1 Fraction” value was determined as 2.32 ± 1.16% in series [3] (setting [12]); 22.36 ± 2.80% in [3] (setting [13]); 26.7 ± 1.9% in series [4] (0.79 μM); 49.2 ± 2.2% in [4] (2.6 μM); 69.5 ± 3.4% in series [4] (7.9 μM). Also, in [11] (Table 2), the “VEGFR-2 IC50 values, in words” value is listed as “low nanomolar range”.
`COc1cc(C2=C(c3c[nH]c4ccc(F)cc34)C(=O)NC2=O)cc(OC)c1OC` [O, 3-(5-Fluoro-1H-indol-3-yl)-4-(3,4,5-trimethoxyphenyl)-maleinimide] showed a melting point of 232 to 233 °C. The inhibition at 0.026 µM in series [1] is 63%. In series [2], the viability at 2.6 µM turned out to be 47.83 ± 0.34%, the viability at 7.9 µM came out at 35.5 ± 0.71%, the viability at 26 µM was determined as 42.1 ± 0.58% and the viability at 52 µM is 17.6 ± 1.81%. Besides, the “Activity in combination with irinotecan relative to compound A, in words” value in series [3] is “at least comparable with compound A”. In addition, the “Sub-G1 Fraction” value in series [3] (setting [12]) stood at 3.26 ± 2.14%. Besides, the “Sub-G1 Fraction” value in series [3] (setting [13]) is listed as 49.69 ± 2.96%. This compound also gave an IC50 in series [11] of 182 nM. Besides, the “Sub-G1 Fraction” value in [4] (0.79 μM) came to 16.0 ± 1.2%. In addition, in [4] (2.6 μM), the “Sub-G1 Fraction” value is given as 73.3 ± 3.2%. In addition, in series [4] (7.9 μM), the “Sub-G1 Fraction” value amounted to 90.6 ± 5.4%.

Source of the values: US9364459B2, “3-(indolyl)- or 3-(azaindolyl)- 4-arylmaleimide derivatives for use in the treatment of colon and gastric adenocarcinoma” (Johannes Gutenberg-Universität Mainz, priority 2009, dated 2016).
